Reference: patent US5399681A, “Method for preparing N^6 -substituted NAD, NADP or FAD” (Gesellschaft fur Biotechnologische Forschung mbH (GBF), priority 1986, dated 1995)

Tests used:
[1] = target: T1, yeast alcohol dehydrogenase (Saccharomyces cerevisiae, UniProt P00330); assay: Enzymatic reducibility with the reaction catalyzed by yeast alcohol dehydrogenase; assay type: biochemical; conditions: for Reducibility %: 0.1M tris/HCl pH 8.2, room temperature, 0.1M ethanol, 7 mM semicarbazide/HCl, 0.1 mM coenzyme free or polymer-bound, 0.3 mg alcohol dehydrogenase
T1 sequence (P00330 1-348): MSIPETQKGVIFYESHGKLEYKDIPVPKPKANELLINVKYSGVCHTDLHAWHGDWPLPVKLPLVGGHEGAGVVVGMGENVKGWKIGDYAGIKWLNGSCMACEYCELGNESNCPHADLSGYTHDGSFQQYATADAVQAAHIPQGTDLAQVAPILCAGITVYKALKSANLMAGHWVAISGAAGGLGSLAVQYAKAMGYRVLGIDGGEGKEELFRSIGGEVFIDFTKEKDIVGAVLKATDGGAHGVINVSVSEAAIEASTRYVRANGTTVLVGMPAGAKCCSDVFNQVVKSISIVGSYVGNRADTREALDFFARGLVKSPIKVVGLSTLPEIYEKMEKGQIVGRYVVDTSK
Experimental: The enzymatic reducibility of the water-soluble polymer-bound N^6 -(2-aminoethyl)-NAD derivatives was determined compared with N^6 -(2-aminoethyl)-NAD with the reaction catalyzed by yeast alcohol dehydrogenase under the following conditions:
0.1M tris/HCl, pH 8.2, room temperature
0.1 mM N^6 -(2-aminoethyl)-NAD
0.3 mg alcohol dehydrogenase
Note: For N^6 -(2-aminoethyl)-NAD and N^6 -(2-aminoethyl)-NADH derivatives ε267 =21000 M^-1 cm^-1 and ε340 =6220 M^-1 cm^-1 as extiction coefficients.

[2] = target: T2, yeast glucose 6-phosphate dehydrogenase (Saccharomyces cerevisiae, UniProt P11412); assay: Enzymatic reducibility with the reaction catalyzed by yeast glucose 6-phosphate dehydrogenase; assay type: biochemical; conditions: for Reducibility %: 0.05M triethanolamine/HCl pH 8.0, room temperature, 5.5 mM MgCl2, 4.5 mM glucose-6-phosphate, 0.1 mM coenzyme free or polymer-bound, 30 μg glucose-6-phosphate dehydrogenase
T2 sequence (P11412 1-505): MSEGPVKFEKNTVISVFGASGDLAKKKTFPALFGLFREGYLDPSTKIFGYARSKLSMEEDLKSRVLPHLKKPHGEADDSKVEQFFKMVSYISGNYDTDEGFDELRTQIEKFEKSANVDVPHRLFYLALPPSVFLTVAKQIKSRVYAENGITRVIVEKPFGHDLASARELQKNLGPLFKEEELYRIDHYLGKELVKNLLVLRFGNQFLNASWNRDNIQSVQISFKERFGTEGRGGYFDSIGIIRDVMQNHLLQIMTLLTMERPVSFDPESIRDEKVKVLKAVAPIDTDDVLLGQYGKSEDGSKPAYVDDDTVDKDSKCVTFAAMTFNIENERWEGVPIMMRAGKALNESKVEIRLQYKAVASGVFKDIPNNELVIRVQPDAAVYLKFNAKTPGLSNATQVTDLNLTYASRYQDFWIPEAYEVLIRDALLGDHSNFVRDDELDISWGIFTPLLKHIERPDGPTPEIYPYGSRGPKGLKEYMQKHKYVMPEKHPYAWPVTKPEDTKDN
Experimental: The enzymatic reducibility of the water-soluble polymer-bound N^6 -(2-aminoethyl)-NADP derivatives was determined compared with N^6 -(2-aminoethyl)-NADP with the reaction catalyzed by yeast glucose 6-phosphate dehydrogenase under the following conditions:
0.05M triethanolamine/HCl, pH 8.0, room temperature
4.5 mM glucose-6-phosphate
0.1 mM N^6 -(2-aminoethyl)-NADP (free or polymer-bound)
30 μg glucose-6-phosphate dehydrogenase
Note: For the N^6 -(2-aminoethyl)NADP and ^6 -(2-aminoethyl)-NADPH derivatives ε267 =21000 M^-1 cm^-1 and ε340 =6220 M^-1 cm^-1 were assumed as extinction coefficients.

dextran-N^6 -(2-aminoethyl)-NAD
Reducibility % [1]: 90%

poly-(ethylene/maleic acid)-N^6 -(2-aminoethyl)-NADP
Reducibility % [2]: 50%

poly-(methylvinyl ether/maleic acid)-N^6 -(2-aminoethyl)-NAD
Reducibility % [1]: 70%

poly-(methylvinyl ether/maleic acid)-N^6 -(2-aminoethyl)-NADP
Reducibility % [2]: 60%

NCCNc1ncnc2c1ncn2[C@@H]1O[C@H](COP(=O)(O)OP(=O)([O-])OC[C@H]2O[C@@H]([n+]3cccc(C(N)=O)c3)[C@H](O)[C@@H]2O)[C@@H](O)[C@H]1OP(=O)(O)O [N^6-(2-aminoethyl)-NADP]
Reducibility % [2]: 100% | Enzymatic reduction to N^6 -(2-aminoethyl)-NADPH (in words) ([2]; catalyzed by beer yeast glucose-6-phosphate dehydrogenase): Quantitative reduction

PEG (Mr =4000)-N^6 -(2-aminoethyl)-NADP
Reducibility % [2]: 95%

polyethylene glycol N^6 -(2-aminoethyl)-NAD
Reducibility % [1]: 90%

poly-(ethylene/maleic acid)-N^6 -(2-aminoethyl)-NAD
Reducibility % [1]: 60%

NCCNc1ncnc2c1ncn2[C@@H]1O[C@H](COP(=O)(O)OP(=O)([O-])OC[C@H]2O[C@@H]([n+]3cccc(C(N)=O)c3)[C@H](O)[C@@H]2O)[C@@H](O)[C@H]1O [N^6-(2-aminoethyl)-NAD]
Reducibility % [1]: 100% | Enzymatic reduction to N^6 -(2-aminoethyl)-NADH (in words) ([1]; catalyzed by beer yeast alcohol dehydrogenase): Quantitative reduction

poly-(divinyl ether/maleic acid)-N^6 -(2-aminoethyl)-NADP
Reducibility % [2]: 63%

poly-(divinyl ether/maleic acid)-N^6 -(2-aminoethyl)-NAD
Reducibility % [1]: 60%

PEG (Mr =20000)-N^6 -(2-aminoethyl)-NADP
Reducibility % [2]: 95%

polyvinylpyrrolidone N^6 -(2-aminoethyl)-NAD
Reducibility % [1]: 90%
